US7745492B2, “Carboxamido opioid compounds” (Janssen Pharmaceutical, priority 2004, dated 2010)

Assays:
[1] = molecular target: T1, delta opioid receptor (Rattus norvegicus, UniProt P33533); experiment: Rat brain delta opioid receptor binding assay ([3H]DPDPE); conditions: rat forebrain membranes, 25° C.
T1 construct: from tissue; host or cells: rat forebrain membrane (particulate) preparation
Method: (§1) Rat Brain Mu and Delta Opioid Receptor Binding Assay
Male, Wistar rats (150-250 g, VAF, Charles River, Kingston, N.Y.) were killed by cervical dislocation and their brains removed and placed immediately in ice cold Tris HCl buffer (50 mM, pH 7.4). The forebrains were separated from the remainder of the brain by a coronal transection, beginning dorsally at the colliculi and passing ventrally through the midbrain-pontine junction. After dissection, the forebrains were homogenized in Tris buffer in a Teflon®-glass homogenizer. The homogenate was diluted to a concentration of 1 g of forebrain tissue per 100 mL Tris buffer and centrifuged at 39,000×G for 10 min. The pellet was resuspended in the same volume of Tris buffer with several brief pulses from a Polytron homogenizer. This particulate preparation was used for the opioid receptor binding assays. […] The tubes and filters were rinsed three times with 4 mL of 10 mM HEPES (pH 7.4) and the radioactivity associated with the filter circles determined using Formula 989 scintillation fluid (New England Nuclear, Boston, Mass.) in a scintillation counter.
(§2) The data were used to calculate a Ki value, using GraphPad Prism.

[2] = molecular target: T2, mu opioid receptor (Rattus norvegicus, UniProt P33535); experiment: Rat brain mu opioid receptor binding assay ([3H]DAMGO); conditions: rat forebrain membranes, 25° C.
T2 construct: from tissue; host or cells: rat forebrain membrane (particulate) preparation
T2 sequence (P33535 whole entry): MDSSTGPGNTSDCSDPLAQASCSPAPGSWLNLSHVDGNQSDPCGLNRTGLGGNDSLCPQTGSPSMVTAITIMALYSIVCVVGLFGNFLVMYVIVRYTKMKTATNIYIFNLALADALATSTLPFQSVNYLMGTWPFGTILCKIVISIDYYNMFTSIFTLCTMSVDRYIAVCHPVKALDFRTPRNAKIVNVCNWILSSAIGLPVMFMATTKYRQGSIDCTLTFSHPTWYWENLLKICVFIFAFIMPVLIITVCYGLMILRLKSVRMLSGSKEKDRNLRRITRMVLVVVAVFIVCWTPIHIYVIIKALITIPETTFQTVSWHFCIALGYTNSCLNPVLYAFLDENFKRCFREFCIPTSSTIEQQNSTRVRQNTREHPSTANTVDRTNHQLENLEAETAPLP
Method: as §1
Male, Wistar rats (150-250 g, VAF, Charles River, Kingston, N.Y.) were killed by cervical dislocation and their brains removed and placed immediately in ice cold Tris HCl buffer (50 mM, pH 7.4). The forebrains were separated from the remainder of the brain by a coronal transection, beginning dorsally at the colliculi and passing ventrally through the midbrain-pontine junction. After dissection, the forebrains were homogenized in Tris buffer in a Teflon®-glass homogenizer. The homogenate was diluted to a concentration of 1 g of forebrain tissue per 100 mL Tris buffer and centrifuged at 39,000×G for 10 min. The pellet was resuspended in the same volume of Tris buffer with several brief pulses from a Polytron homogenizer. This particulate preparation was used for the opioid receptor binding assays. Following incubation with the mu opioid selective peptide ligand [^3H]DAMGO or the delta opioid selective ligand [^3H]DPDPE at 25° C., the tube contents were filtered through Whatman GF/B filter sheets on a Brandel cell harvester. The tubes and filters were rinsed three times with 4 mL of 10 mM HEPES (pH 7.4) and the radioactivity associated with the filter circles determined using Formula 989 scintillation fluid (New England Nuclear, Boston, Mass.) in a scintillation counter.
as §2

[3] = molecular target: T3, Human mu opioid (Homo sapiens, UniProt P35372); experiment: [35S]GTPγS binding assay in human mu opioid-CHO cell membranes; type: biochemical
T3 construct: host or cells: CHO cell membranes
T3 sequence (P35372 whole entry): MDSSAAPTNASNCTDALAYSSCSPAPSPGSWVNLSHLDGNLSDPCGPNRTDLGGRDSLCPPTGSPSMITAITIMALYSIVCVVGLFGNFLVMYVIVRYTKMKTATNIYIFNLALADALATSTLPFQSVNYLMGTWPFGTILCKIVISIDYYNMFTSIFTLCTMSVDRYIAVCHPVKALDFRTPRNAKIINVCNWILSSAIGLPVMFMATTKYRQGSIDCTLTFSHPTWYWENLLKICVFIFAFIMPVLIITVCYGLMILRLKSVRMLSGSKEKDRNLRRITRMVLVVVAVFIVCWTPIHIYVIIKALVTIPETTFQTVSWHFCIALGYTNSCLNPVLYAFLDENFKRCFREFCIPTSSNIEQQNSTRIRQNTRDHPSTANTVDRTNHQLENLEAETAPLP
Method: [^35S]GTPγS Binding Assay in Human mu opioid-CHO Cell Membranes
Human mu-CHO cell membranes were purchased from Receptor Biology, Inc. (Baltimore, Md.). About 10 mg/ml of membrane protein was suspended in 10 mM TRIS-HCl, pH 7.2, 2 mM EDTA, 10% sucrose.
(§3) Membranes were maintained at 4-8° C. 1 ml of membranes was added into 15 ml cold assay buffer, containing 50 mM HEPES, pH 7.6, 5 mM MgCl2, 100 mM NaCl, 1 mM DTT and 1 mM EDTA. The membrane suspension was homogenized with a Polytron 2 times and centrifuged at 3000 rpm for 10 min. The supernatant was then centrifuged at 18,000 rpm for 20 min. The pellet was resuspended in 10 ml assay buffer with a Polytron.
The pellet membranes (20 μg/ml) were preincubated with Scintillation Proximity Assay beads (SPA, 10 mg/ml) at 25° C. for 45 min in the assay buffer. The SPA beads (5 mg/ml) coupled with membranes (10 μg/ml) were then incubated with 0.5 nM [^35S]GTPγS in the same HEPES buffer containing 50 μM GDP in total volume of 200 μl. A range of concentrations of receptor agonists were used to stimulate [^35S]GTPγS binding. The basal binding was tested in the absence of agonist and non-specific binding was tested in the presence of 10 μM unlabeled GTPγS. Radioactivity was quantified on a Packard TopCount.
Data were Calculated as Follows: % of basal=(stimulated−non-specific)*100/(basal−non specific) % Inhibition=(% Basal of 1 μM DAMGO−% Basal of compound)*100/(% Basal of 1 μM DAMGO−100)
(§4) EC50 values were calculated using the Prism program.

[4] = molecular target: T4, Delta opioid (Mus musculus, UniProt P32300); experiment: [35S]GTPγS binding assay in NG108-15 cell membrane; type: biochemical; conditions: NG108-15 cell membranes
T4 construct: NG108-15 cell membranes were purchased from Applied Cell Sciences (Rockville, Md.); host or cells: NG108-15 cell membranes
T4 sequence (P32300 whole entry): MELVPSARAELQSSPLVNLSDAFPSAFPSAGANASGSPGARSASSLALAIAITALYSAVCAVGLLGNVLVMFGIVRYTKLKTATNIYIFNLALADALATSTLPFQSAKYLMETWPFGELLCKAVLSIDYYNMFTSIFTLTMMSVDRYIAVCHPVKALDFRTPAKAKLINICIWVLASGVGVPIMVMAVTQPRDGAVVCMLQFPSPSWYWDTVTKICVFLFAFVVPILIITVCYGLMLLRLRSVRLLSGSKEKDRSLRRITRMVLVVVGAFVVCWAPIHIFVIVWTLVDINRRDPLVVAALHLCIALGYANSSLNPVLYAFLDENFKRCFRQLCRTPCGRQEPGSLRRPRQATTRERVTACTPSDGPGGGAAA
Method: [^35S]GTPγS Binding Assay in NG108-15 Cell Membrane
NG108-15 cell membranes were purchased from Applied Cell Sciences (Rockville, Md.). An 8 mg/mL portion of membrane protein was suspended in 10 mM TRIS-HCl, pH 7.2, 2 mM EDTA, 10% sucrose.
as §3, with “C. A” for “C.”, “1 mL portion” for “1 ml”, “into 10 mL” for “into 15 ml”, “mM Tris,” for “mM HEPES,”, “mM EGTA.” for “mM EDTA.”, “buffer using” for “buffer with”
The pellet membranes (75 μg/ml) were preincubated with SPA beads (10 mg/ml) at 25° C. for 45 min in the assay buffer. The SPA beads (5 mg/ml) coupled with membranes (37.5 μg/ml) were then incubated with 0.1 nM [^35S] GTPγS in the same Tris buffer containing 100 μM GDP in total volume of 200 μl. A range of concentrations of receptor agonists was used to stimulate [^35S] GTPγS binding. The basal binding was tested in the absence of agonist and non-specific binding was tested in the presence of 10 μM unlabeled GTPγS. The radioactivity was quantified on a Packard TopCount.
Calculations were performed as follows: % of Basal=(stimulated−non specific)*100/(basal−non specific).
as §4

[5] = tested on: Male Sprague Dawley rats; experiment: Spinal nerve ligation (SNL) model of neuropathic pain, mechanical allodynia (Von Frey); type: in vivo; conditions: rat
Method: Spinal Nerve Ligation (SNL) Model of Neuropathic Pain
Male Sprague Dawley rats weighing 145 to 165 g (approximately 6 weeks of age) were obtained from Harlan (Indianapolis, Ind.). Food and water were provided ad lib and a 12 h light and 12 h dark cycle were maintained. Animals were group housed under specific pathogen-free, barrier maintained environment and were allowed to acclimate for no less than 1 week. Following surgery, animals were housed individually in solid bottom polycarbonate cages with automatic watering devices at 22° C. and a relative humidity of 60%. All animals received Harland Tekland Diet # 8604.
Anesthesia was induced using isoflurane (IsoVet™) inhalant in an induction chamber (3-5% in 2 L/min of O2). Once recumbent, the animal was removed and placed into a nose cone which delivered inhalant isoflurane (0.5-2.5% at 2 L/min Of O2). The dorsal pelvic area was shaved and scrubbed aseptically with chlorhexidine scrub, 70% alcohol, and a 5% chlorhexidine solution. The animal was held in ventral recumbency on a heating pad, and the surgical procedure described by Kim and Chung (1992) was performed. The left paraspinal muscles were separated from the spinous processes at the level of Lumbar 4 to Sacral 2 (L4-S2). Once the musculature was retracted, the L6 transverse process was removed using a small rongeur. L4 and L5 spinal nerves could then be visualized. L5 was then isolated and ligated using 6-0 silk suture material. Warm saline and a dose of long-acting antibiotic was administered immediately post-op before recovery form anesthesia.
At least one week following surgery, animals were individually placed in a Lucite testing chamber with a wire mesh bottom. Mechanical (tactile) allodynia was measured by recording the pressure at which the affected paw was withdrawn from graded stimuli (Von Frey hairs ranging from 4.0 to 148.1 mN equivalent to 0.25 to 15 g of pressure) applied to the plantar surface of the paw (between the footpads) according to the procedure of Chaplan et. al (1994) in order to calculate paw withdrawal threshold (PWT). Normal rats can withstand at least 15 g of pressure without responding. SNL rats can respond to as little as 0.25 g of pressure. Rats were included in this study only if their PWT was below 4.0 g.
Animals were used for compound testing between 2 weeks and 8 weeks post-operatively. Animals were always pre-tested for baseline withdrawal threshold on the day of testing. Following a 16 h fast, PWT was evaluated at 30 min, 1 h, 2 h, and 4 h post-dosing. Dose-response studies were conducted at the time of peak effect. Studies were conducted in a blinded manner.
Data were normalized and results were presented as % MPE (maximum possible effect) of the drug.

[6] = tested on: spinal nerve ligated rats; experiment: Investigation of tolerance development to antiallodynic effect; type: in vivo, rat; conditions: dosing for five days, evaluated days one and five
Method: Investigation of Tolerance Development
The development of tolerance to the analgesic effect of mu opioid compounds is well known. The development of tolerance to the antiallodynic effect of the Compound 3 was investigated by administering the compound to spinal nerve ligated rats for five days. The antiallodynic effect of the compound was evaluated on days one and five.

[7] = tested on: male Sprague-Dawley rats; experiment: Rat CFA radiant heat model of inflammatory pain; type: in vivo; conditions: dosed orally 24 h after intraplantar CFA
Method: Rat CFA Radiant Heat Model of Inflammatory Pain
Intraplantar injection of Complete Freund's Adjuvant (CFA) in rodents results in a strong, long-lasting inflammatory reaction, characterized by a chronic and pronounced hyperalgesia to both thermal and mechanical stimuli. These effects peak between 24-72 h following injection, and can last for several days to a few weeks. To assess the ability of compounds to reverse thermal hyperalgesia, male Sprague-Dawley rats (200-350 g) were given an intraplantar injection of CFA (1:1 CFA:saline, 100 μL) into their left hindpaw. Following a 24-h incubation period, response latencies on the Radiant Heat Paw Stimulator (RH) were obtained and compared to baseline (pre-CFA) latencies. The RH device automatically registered lifting of the paw from the surface of the glass. […] Following the post CFA latency assessment, rats were dosed orally (2.5 mL/kg) with test compound or vehicle (hydroxypropylmethylcellulose, HPMC). Percent reversal of hyperalgesia was calculated for each animal as (Treatment Response−postCFA Response)/(preCFA Response−postCFA Response)×100. Therefore, a return to normal pre-CFA thresholds was defined as 100% efficacy, whereas no change from post-CFA thresholds was 0% efficacy. Average % reversal of hyperalgesia was then calculated for each treatment group (n=6-8 rats/group). […]

T1 sequence (P33533 whole entry): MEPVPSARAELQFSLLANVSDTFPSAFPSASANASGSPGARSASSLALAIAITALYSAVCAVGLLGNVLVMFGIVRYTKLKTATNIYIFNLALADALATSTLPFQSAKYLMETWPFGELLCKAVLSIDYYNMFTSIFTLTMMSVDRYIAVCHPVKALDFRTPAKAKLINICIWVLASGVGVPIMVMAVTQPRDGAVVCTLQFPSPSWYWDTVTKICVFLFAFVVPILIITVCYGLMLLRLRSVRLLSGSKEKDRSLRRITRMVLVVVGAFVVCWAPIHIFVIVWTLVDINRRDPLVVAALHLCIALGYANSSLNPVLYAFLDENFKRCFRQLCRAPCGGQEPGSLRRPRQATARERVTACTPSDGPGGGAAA

Compound	Ki [1] [µM]	Ki [2] [µM]	further results
CCN(CC)C(=O)c1cccc([C@@]2(O)CCCC[C@@H]2CN(C)C)c1 (racemic) [Cpd 5, 3-[(1-RS, 2-RS)-2-[(dimethylamino)methyl]-1-hydroxycyclohexyl]-N,N-diethyl-benzamide]	> 10	> 10	–
CN(C)C[C@H]1CCCC[C@]1(O)c1cccc(C(N)=O)c1 (racemic) [Cpd 2, 3-[(1-RS, 2-RS)-[(2-Dimethylamino)methyl]-1-hydroxycyclohexyl]-benzamide]	2.47	0.0294	Mu opioid GTPγS (result in words) [3]: Agonist; EC50 [4]: 5.63 µM; MPE in spinal nerve ligation model ([5]; 3 mg/kg, i.v.): 87%; MPE in spinal nerve ligation model ([5]; 30 mg/kg, p.o.): 88%
CNC(=O)c1cccc([C@@]2(O)CCCC[C@@H]2CN(C)C)c1 (racemic) [Cpd 7, 3-[(1-RS, 2-RS)-2-[(Dimethylamino)methyl]-1-hydroxycyclohexyl]-N-methylbenzamide]	> 10	2.12	–
CN(C)C[C@@H]1CCCC[C@]1(O)c1cccc(C(N)=O)c1 (racemic) [Cpd 1, 3-[(1-RS, 2-SR)-2-[(Dimethylamino)methyl]-1-hydroxycyclohexyl]-benzamide]	9.87	1.39	–
CN1CC[C@]23c4c5ccc(O)c4O[C@H]2[C@@H](O)C=C[C@H]3[C@H]1C5 [morphine, reference compound]	–	–	Development of tolerance to the antiallodynic effect [6]: little or no antiallodynic effect remaining after five days of dosing
CN(C)C[C@H]1CCCC[C@]1(O)c1cccc(C(=O)NC2CC2)c1 (racemic) [Cpd 6, N-Cyclopropyl-3-[(1-RS, 2-RS)-2-[(dimethylamino)methyl]-1-hydroxycyclohexyl]-benzamide]	> 10	5.19	–
CN(C)C[C@@H]1CCCC[C@@]1(O)c1cccc(C(N)=O)c1 (single isomer, unassigned) [Cpd 4]	> 10	0.828	EC50 [3]: 4.82 µM; Mu opioid GTPγS relative efficacy [3]: 41%; Antihyperalgesic effect (reversal of thermal hyperalgesia) [7]: antihyperalgesic; MPE in spinal nerve ligation model ([5]; 30 mg/kg, p.o.): 39%; MPE in spinal nerve ligation model ([5]; 100 mg/kg, p.o.): 95%
